Laboratory results from patent US20250275975A1, “Methods of Treating Neuropathies” (Athira Pharma, Inc., priority 2023, published 2025).

How the values were obtained:
STZ DNP rats [1] = assay: Mechanical allodynia rescue assay (Von Frey paw withdrawal threshold), Example B1; type: in vivo, Sprague Dawley rats; design: key to Efficacy: rescue of mechanical allodynia behavior as measured by paw withdrawal threshold: NS indicates treatment did not significantly affect paw withdrawal threshold vs disease control.; + indicates p < 0.05 vs disease control.; ++ indicates p < 0.01 vs disease control.; +++ indicates p < 0.001 vs disease control; conditions: for Efficacy: rescue of mechanical allodynia behavior as measured by paw withdrawal threshold: study day 28 after 14 days of treatment, p vs disease control
Excerpt: Hyperglycemic rats consistently develop neuropathic pain-associated behaviors including mechanical allodynia. Allodynia refers to a type of neuropathic pain characterized by increased sensitivity to stimuli that are not normally painful. Mechanical allodynia is quantified in rats by determination of the force required to induce a withdrawal of the paw and is negatively associated with allodynia such that, the lower the force required to induce paw withdrawal, the greater the pain behavior.
(§1) A series of studies were performed to determine the ability of HGF/MET positive modulator compounds to reduce the mechanical allodynia pain behaviors in hyperglycemic rats. A single dose of STZ (55 mg/kg via intravenous (IV)) was administered to induce a Type I diabetic hyperglycemia in male Sprague Dawley rats. Hyperglycemia was confirmed 4 days after STZ administration, with blood glucose levels above 200 mg/dL considered successful model induction. 14 days after disease induction, test compound treatment was initiated and continued as daily compound administration over the remaining course of the study. Route and dose for each compound were determined by pharmacokinetic and distribution modelling. Control groups included animals with no diabetic induction (Sham control), animals with diabetes but treated only with formulation vehicle (DNP (diabetic peripheral neuropathy) control), and disease animals treated with pregabalin (30 mg/kg via PO), which is known to reduce neuropathic pain behaviors.
(§2) Changes to neuropathic pain behaviors were assessed after 14 days of compound treatment on study day 28. Mechanical allodynia was tested by placing each animal on an elevated wire grid and stimulating the plantar surface of the right rear paw with a series of filaments corresponding to increasing orders of force, reaching a maximum force of 60 grams (Aesthesio manual Von Frey filaments). The force of the filament that causes paw withdrawal was considered the paw withdrawal threshold in grams. Pain sensitivity in response to thermal hyperalgesia was determined by using hot plate method and represented as paw withdrawal latency (PWL). Rats were placed on the hot plate (52.5° C.), and the time taken to show the nocifensive behavior (either licking or jumping) of any of their paws was recorded. Statistical comparison of treatment groups to DNP control groups was performed by one-way ANOVA followed by Dunnett's multiple comparisons test.

STZ DNP rats [2] = assay: Thermal hyperalgesia rescue assay (hot plate paw withdrawal latency), Example B1; type: in vivo, Sprague Dawley rats; design: key to Efficacy: rescue of thermal hyperalgesia behavior as measured by paw withdrawal latency: NS indicates treatment did not significantly affect paw withdrawal latency vs disease control.; + indicates p < 0.05 vs disease control.; ++ indicates p < 0.01 vs disease control.; +++ indicates p < 0.001 vs disease control; conditions: for Efficacy: rescue of thermal hyperalgesia behavior as measured by paw withdrawal latency: study day 28 after 14 days of treatment, hot plate 52.5° C., p vs disease control
Procedure: as §1, §2

[3] = test system: neuron-Schwann cell co-cultures; assay: Sensory neurite extension and myelination in healthy primary dorsal root ganglia cultures; type: cell-based, rat; design: key to Significant promotion of Neurite Network Extension of Sensory Neurons / Significant promotion of Myelination of Sensory neurons by Schwann Cells: “NS” indicates the treatment did not have a significant effect; “+” indicates the treatment had a significant effect; conditions: for Significant promotion of Myelination of Sensory neurons by Schwann Cells / Significant promotion of Neurite Network Extension of Sensory Neurons: Healthy cultures, vs vehicle
Procedure: (§3) To assess the effects of test compound treatment on these structures central to neuropathic pathology, peripheral sensory neurons were modeled using dissociated primary cultures of neurons and Schwann cells collected from fetal rats. Fetal rats were collected from pregnant females after 15 days of gestation, and the dorsal root ganglion was dissociated via trypsin digestion and mechanical disruption. The resulting cells were plated and allowed to grow for 7 days. On day 7 in culture, ascorbic acid at a concentration of 50 μM was added to the culture to promote myelination of sensory neurons by Schwann cells.
To model the effects of Compound 5a in the normal peripheral nervous system, neuron-Schwann cell co-cultures were treated with Compound 5a in combination with low doses of recombinant hepatocyte growth factor (HGF). On day 8 in culture, experimental treatments were added to culture media. These treatments included HGF with or without Compound 5a. Some cultures were treated with the steroid hormone B-estradiol to serve as a positive control. Treatments were applied every other day, and on day 21 in culture the cultures were fixed with ethanol and processed for immunodetection of both microtubule-associate protein 2 (MAP2) to reveal neurons and their neurites as well as myelin-associated glycoprotein (MAG) to reveal Schwann cells and the extent of their myelination of cultured neurites. Cells were counterstained with Hoechst DNA dye to identify individual cells.
(§4) 30 fluorescent images were captured for each treatment group and images were quantified by automated image analysis. Neurite network extension was quantified as the total length of MAP2-positive neurites per cell measured in μm. Myelination by Schwann cells was quantified by the area of overlap between MAP2-positive neurites and MAG-positive myelin wrapping measured in μm^2. Statistical analysis was performed as a one-way ANOVA with Fisher's LSD post-test against either vehicle- or Cisplatin-treated groups respectively.

[4] = test system: neuron-Schwann cell co-cultures injured with cisplatin; assay: Sensory neurite extension and myelination in cisplatin-injured primary dorsal root ganglia cultures; type: cell-based, rat; design: key to Significant promotion of Neurite Network Extension of Sensory Neurons / Significant promotion of Myelination of Sensory neurons by Schwann Cells: “NS” indicates the treatment did not have a significant effect; “+” indicates the treatment had a significant effect; conditions: for Significant promotion of Myelination of Sensory neurons by Schwann Cells / Significant promotion of Neurite Network Extension of Sensory Neurons: +Cisplatin injury (10 μg/ml, 24 hours), vs Cisplatin-treated group
Procedure: as §3
To model the effects of neuropathic injury in sensory neurons and associated Schwann cells, cultures were injured with the chemotherapy drug cisplatin. These cultures were prepared identically to those described above. In this system, Compound 5a, HGF, and β-estradiol treatments began on culture day 19. Also on culture day 19, cisplatin (10 μg/ml) was added to the cultures for 24 hours. On culture day 20, cisplatin was removed from the media while test compound treatments were replaced for 24 hours. On day 21 in culture, cells were fixed and processed for immunodetection as described above.
as §4

[5] = Compound 5a 0.1 μM with HGF 0.05 ng/ml
[6] = Compound 5a 0.5 μM with HGF 0.05 ng/ml
[7] = Compound 5a 1 μM with HGF 0.05 ng/ml
[8] = healthy cultures, 0.5 μM Compound 5a with HGF (0.05 ng/ml)
[9] = injured cultures, Compound 5a at 0.1, 0.5, and 1 μM with HGF (0.05 ng/ml)

For CCC(C)CN1CC2N(Cc3ccc(C(F)(F)F)cc3)CCC(=O)N2[C@@H](C)C1=O (stereo partly shown) [Compound 5a], the “Efficacy: rescue of mechanical allodynia behavior as measured by paw withdrawal threshold” value (from here on “Efficacy: rescue … by paw withdrawal threshold”) (STZ DNP rats [1]; 0.003 mg/kg IV daily) was “NS”, the “Efficacy: rescue … by paw withdrawal threshold” value (STZ DNP rats [1]; 0.015 mg/kg IV daily) was “NS” and the “Efficacy: rescue … by paw withdrawal threshold” value (STZ DNP rats [1]; 0.075 mg/kg IV daily) was “NS”. The “Efficacy: rescue … by paw withdrawal threshold” value (STZ DNP rats [1]; 0.375 mg/kg IV daily) was “++ (++ indicates p < 0.01 vs disease control.)”, the “Efficacy: rescue … by paw withdrawal threshold” value (STZ DNP rats [1]; 1 mg/kg PO daily) was “++ (++ indicates p < 0.01 vs disease control.)” and the “Efficacy: rescue … by paw withdrawal threshold” value (STZ DNP rats [1]; 2 mg/kg PO daily) was “+++ (+++ indicates p < 0.001 vs disease control.)”. The “Efficacy: rescue … by paw withdrawal threshold” value (STZ DNP rats [1]; 10 mg/kg PO daily) was “+++ (+++ indicates p < 0.001 vs disease control.)”, the “Efficacy: rescue … by paw withdrawal threshold” value (STZ DNP rats [1]; 20 mg/kg PO daily) was “+++ (+++ indicates p < 0.001 vs disease control.)” and the “rescue of the mechanical allodynia behavior as measured by paw withdrawal threshold” value (STZ DNP rats [1]; STZ DNP rats) was “significant rescue”. For the same compound, the “Efficacy: rescue of thermal hyperalgesia behavior as measured by paw withdrawal latency” value (“Efficacy: rescue … by paw withdrawal latency” for short) (STZ DNP rats [2]; 0.003 mg/kg IV daily) was “+ (+ indicates p < 0.05 vs disease control.)”, the “Efficacy: rescue … by paw withdrawal latency” value (STZ DNP rats [2]; 0.015 mg/kg IV daily) was “NS” and the “Efficacy: rescue … by paw withdrawal latency” value (STZ DNP rats [2]; 0.075 mg/kg IV daily) was “+ (+ indicates p < 0.05 vs disease control.)”. For the same compound, the “Efficacy: rescue … by paw withdrawal latency” value (STZ DNP rats [2]; 0.375 mg/kg IV daily) was “++ (++ indicates p < 0.01 vs disease control.)”, the “Efficacy: rescue … by paw withdrawal latency” value (STZ DNP rats [2]; 1 mg/kg PO daily) was “NS” and the “Efficacy: rescue … by paw withdrawal latency” value (STZ DNP rats [2]; 2 mg/kg PO daily) was “+ (+ indicates p < 0.05 vs disease control.)”. The “Efficacy: rescue … by paw withdrawal latency” value (STZ DNP rats [2]; 10 mg/kg PO daily) was “+++ (+++ indicates p < 0.001 vs disease control.)”, the “Efficacy: rescue … by paw withdrawal latency” value (STZ DNP rats [2]; 20 mg/kg PO daily) was “+++ (+++ indicates p < 0.001 vs disease control.)” and the “rescue of thermal allodynia behavior as measured by paw withdrawal latency” value (STZ DNP rats [2]; STZ DNP rats) was “significant rescue”. The “Significant promotion of Myelination of Sensory neurons by Schwann Cells” value (shortened to “Significant promotion … by Schwann Cells”) [3, 5] was “+”, the “Significant promotion of Neurite Network Extension of Sensory Neurons” value [3, 5] was “NS” and the “Significant promotion … by Schwann Cells” value [3, 6] was “+”. For the same compound, the “Significant promotion of Neurite Network Extension of Sensory Neurons” value [3, 6] was “+”, the “Significant promotion … by Schwann Cells” value [3, 7] was “NS” and the “Significant promotion of Neurite Network Extension of Sensory Neurons” value [3, 7] was “NS”. For the same compound, the myelination [3, 8] was “significant promotion”, the neurite network extension [3, 8] was “significant promotion” and the “Significant promotion … by Schwann Cells” value [4, 5] was “+”. For the same compound, the “Significant promotion of Neurite Network Extension of Sensory Neurons” value [4, 5] was “+”, the “Significant promotion … by Schwann Cells” value [4, 6] was “+” and the “Significant promotion of Neurite Network Extension of Sensory Neurons” value [4, 6] was “+”. The “Significant promotion … by Schwann Cells” value [4, 7] was “+”, the “Significant promotion of Neurite Network Extension of Sensory Neurons” value [4, 7] was “+” and the myelination [4, 9] was “significantly promoted”. For the same compound, the neurite network extension [4, 9] was “significantly promoted”.
